Laboratory results reported in patent publication US20020059032A1, “Rational selection of putative peptides from identified nucleotide or peptide sequences” (priority 1999, published 2002).
Where a SMILES comes first, the peptide text is derived from it.

molecular target: guinea pig brain membranes; experiment: Binding test with guinea pig brain membranes; conditions: tested on guinea pig brain membranes; read-out: IC50 = 100 μM
Procedure: Binding Assay Alternative Protocol by Skatron
The experimental conditions are identical for all the binding assay protocols except for the fact that: i) the volume R in operation is 200 μl; ii) the test carried out in 96-well Falcon plates iii) the reaction is directly stopped by filtration on filterMat (ref. 11734) Skatron and the radioactivity associated with the filtrate is evaluated: either directly with a γ counter for the peptides labelled with […]: or with a […] in the presence of 5 ml of scintillating liquid.
Membrane Preparations of Guinea Pig Brains and Binding Assay
The guinea pigs are sacrificed by rupturing their cervical vertibrae, decapitated, and the brains are removed very rapidly and placed into a sucrose-Tris-HCl buffer (0.32 M sucrose 5 mM, Tris-HCl, 0.1 g/l bacitracin) at 4° C. (about 10 ml of buffer per brain). The brains are then homogenized using a Potter device and the homogenate is placed in incubation for 30 minutes at 37° C. under agitation, then centrifuged twice for 35 minutes at 100,000×g at 4° C. The protein content of the membrane preparations is evaluated according to the Bradford method (BioRad, according to the manufacturers protocol).
Bonding of Labelled Agonists to the Guinea Pig Brain Membrane Preparation The membranes are placed in a buffer (50 mM of Tris-HCl, 5 mM of MgCl2 and 0.1 g/l of bacitracin) at the desired protein concentration (iodized CCK bond, 0.1 mg of protein/ml; iodized gastrin bond: 0.5 mg of proteins/ml). They are then incubated in the presence of a labelled ligand in a total volume of 500 μl (about 10 pM for the iodized CCK8, 20 pM for the iodized gastrin13), 50-80 minutes at 25° C., and in the presence or absence of cold agonists. The reaction is stopped with 3 ml of additional BSA buffer (20 g/l) at 4° C., the tubes are centrifuged at 10,000×g, the supernatant is drawn off and the radioactivity associated with the precipitate is evaluated with a γ counter.

`CC[C@H](C)[C@H](NC(=O)CNC(=O)[C@H](CCCCN)NC(=O)[C@H](CO)NC(=O)[C@H](Cc1ccc(O)cc1)NC(=O)[C@@H](N)CC(=O)O)C(=O)N[C@H](C(=O)N[C@H](C(=O)N[C@H](C(=O)N[C@@H](CCCCN)C(=O)N[C@@H](CC(N)=O)C(=O)N[C@@H](CC(=O)O)C(N)=O)[C@@H](C)O)C(C)C)[C@@H](C)O` [Example 62, H-DYSKGITVTKND-NH2] (H-DYSKGITVTKND-NH2) and `CC(C)C[C@H](NC(=O)[C@H](CO)NC(=O)[C@@H](NC(=O)[C@H](CC(=O)O)NC(=O)[C@@H](N)CO)[C@@H](C)O)C(=O)N[C@H](C(=O)N[C@@H](Cc1c[nH]c2ccccc12)C(=O)N[C@@H](CC(N)=O)C(=O)N[C@@H](CO)C(=O)N[C@H](C(=O)N[C@@H](CCCCN)C(N)=O)C(C)C)[C@@H](C)O` [Example 27, H-SDTSLTWNSVK-NH2] (H-SDTSLTWNSVK-NH2) are within 1.5-fold of each other in IC50: 670 nM for the first, 680 nM for the second.

Going from `CC(C)C[C@H](NC(=O)[C@H](CO)NC(=O)[C@@H]1CCCN1C(=O)[C@@H](N)CC(=O)O)C(=O)N1CCC[C@H]1C(=O)N[C@H](C(=O)N[C@@H](C)C(=O)N[C@@H](CO)C(=O)N[C@@H](CO)C(=O)N[C@@H](CO)C(=O)N[C@@H](CO)C(=O)N[C@@H](CO)C(=O)N[C@@H](CO)C(=O)N[C@@H](CO)C(=O)N[C@@H](CCCCN)C(=O)N[C@@H](CCCNC(=N)N)C(N)=O)C(C)C` [Example 11, H-DPSLPVASSSSSSSKR-NH2] (H-DPSLPVASSSSSSSKR-NH2) to `CC(C)C[C@H](NC(=O)[C@H](CCC(=O)O)NC(=O)[C@H](CC(=O)O)NC(=O)[C@H](CC(C)C)NC(=O)[C@@H](NC(=O)[C@H](Cc1ccccc1)NC(=O)[C@H](C)NC(=O)[C@H](Cc1c[nH]cn1)NC(=O)[C@H](CO)NC(=O)[C@H](CO)NC(=O)[C@@H](N)CC(=O)O)[C@@H](C)O)C(=O)N[C@@H](CCCNC(=N)N)C(N)=O` [Example 17, H-DSSHAFTLDELR-NH2] (H-DSSHAFTLDELR-NH2), the IC50 rises from 270 nM to 680 nM (2.5-fold).

First: CC[C@H](C)[C@H](NC(=O)[C@H](Cc1ccccc1)NC(=O)[C@H](CCC(=O)O)NC(=O)[C@@H]1CCCN1C(=O)[C@H](Cc1ccc(O)cc1)NC(=O)[C@H](Cc1c[nH]cn1)NC(=O)[C@H](CCC(=O)O)NC(=O)[C@@H](NC(=O)[C@@H](N)CC(C)C)C(C)C)C(N)=O [Example 45, H-LVEHYPEFI-NH2] (H-LVEHYPEFI-NH2)
Second: CC[C@H](C)[C@H](N)C(=O)N[C@@H](CO)C(=O)N[C@@H](CCC(=O)O)C(=O)N[C@@H](CC(C)C)C(=O)N[C@@H](Cc1ccccc1)C(=O)N[C@H](C(=O)N[C@@H](CC(C)C)C(=O)N[C@@H](CCC(=O)O)C(N)=O)[C@@H](C)O [Example 35, H-ISELFTLE-NH2] (H-ISELFTLE-NH2)
The IC50 of the first is 8-fold lower: 700 nM for the first, 5600 nM for the second.

Going from `CSCC[C@H](NC(=O)[C@@H](NC(=O)[C@H](CCC(=O)O)NC(=O)[C@H](CCC(=O)O)NC(=O)[C@H](CC(C)C)NC(=O)[C@H](CCC(N)=O)NC(=O)[C@@H](N)CC(C)C)[C@@H](C)O)C(=O)N1CCC[C@H]1C(=O)N[C@@H](CO)C(=O)N1CCC[C@H]1C(=O)N[C@@H](Cc1ccc(O)cc1)C(N)=O` [Example 14, H-LQLEETMPSPY-NH2] (H-LQLEETMPSPY-NH2) to `CSCC[C@H](NC(=O)[C@H](CC(C)C)NC(=O)CNC(=O)[C@H](Cc1ccccc1)NC(=O)[C@H](Cc1ccccc1)NC(=O)[C@H](CCC(N)=O)NC(=O)[C@H](CCC(N)=O)NC(=O)[C@@H]1CCCN1C(=O)[C@H](CCCCN)NC(=O)[C@@H]1CCCN1C(=O)[C@@H](N)Cc1ccc(O)cc1)C(N)=O` [Example 64, H-YPKPQQFFGLM-NH2] (H-YPKPQQFFGLM-NH2), the IC50 falls from 860 nM to 1 nM (860-fold).

First: CC(C)C[C@H](NC(=O)[C@H](C)NC(=O)CNC(=O)[C@@H](NC(=O)[C@@H](N)CCCNC(=N)N)[C@@H](C)O)C(=O)N[C@H](C(=O)N[C@@H](CC(C)C)C(=O)N[C@@H](CO)C(=O)N[C@@H](CCCNC(=N)N)C(=O)NCC(N)=O)C(C)C [Example 23, H-RTGALVLSRG-NH2] (H-RTGALVLSRG-NH2)
Second: CC(C)C[C@H](NC(=O)CNC(=O)[C@H](CC(C)C)NC(=O)[C@H](CC(N)=O)NC(=O)[C@H](CCCNC(=N)N)NC(=O)[C@H](CC(C)C)NC(=O)[C@@H](NC(=O)[C@H](CO)NC(=O)[C@@H](NC(=O)[C@H](CO)NC(=O)[C@@H](N)Cc1ccccc1)C(C)C)[C@@H](C)O)C(N)=O [Example 46, H-FSVSTLRNLGL-NH2] (H-FSVSTLRNLGL-NH2)
The IC50 of the first is 13-fold higher: 1300 nM for the first, 100 nM for the second. The second is the more potent here.

Compared with `CC(C)C[C@H](NC(=O)[C@@H](N)CCC(N)=O)C(=O)N[C@@H](Cc1c[nH]c2ccccc12)C(=O)N[C@@H](CC(=O)O)C(=O)N[C@H](C(=O)N[C@@H](C)C(=O)N[C@@H](Cc1c[nH]cn1)C(=O)N[C@@H](CO)C(=O)N[C@H](C(=O)N[C@@H](CCCCN)C(=O)N[C@@H](CCC(=O)O)C(=O)N[C@@H](CCCCN)C(=O)N[C@@H](Cc1ccccc1)C(N)=O)C(C)C)C(C)C` [Example 54, H-QLWDVAHSVKEKF-NH2] (H-QLWDVAHSVKEKF-NH2), `CC(C)C[C@H](NC(=O)[C@H](CC(N)=O)NC(=O)[C@H](CC(=O)O)NC(=O)[C@H](Cc1c[nH]c2ccccc12)NC(=O)[C@@H](NC(=O)[C@H](CC(C)C)NC(=O)[C@H](CC(=O)O)NC(=O)[C@H](CO)NC(=O)[C@H](C)NC(=O)[C@@H](N)CO)[C@@H](C)O)C(=O)N[C@@H](CCCCN)C(N)=O` [Example 34, H-SASDLTWDNLK-NH2] (H-SASDLTWDNLK-NH2) is 3.3-fold higher in IC50: 300 nM for the first, 1000 nM for the second. The first is the more potent here.

Compared with `CSCC[C@H](NC(=O)[C@H](Cc1ccccc1)NC(=O)[C@H](Cc1ccc(O)cc1)NC(=O)[C@H](CC(N)=O)NC(=O)[C@@H](N)CO)C(=O)N1CCC[C@H]1C(=O)N[C@@H](Cc1ccccc1)C(=O)N[C@@H](CO)C(=O)N[C@@H](C)C(N)=O` [Example 21, H-SNYFMPFSA-NH2] (H-SNYFMPFSA-NH2), `CC[C@H](C)[C@H](NC(=O)[C@H](CO)NC(=O)[C@H](Cc1ccccc1)NC(=O)[C@@H](N)CO)C(=O)N[C@H](C(=O)NCC(=O)N[C@@H](CC(=O)O)C(=O)N[C@@H](Cc1ccccc1)C(=O)N[C@@H](CCC(N)=O)C(=O)N[C@@H](CC(N)=O)C(N)=O)[C@@H](C)CC` [Example 30, H-SFSIIGDFQN-NH2] (H-SFSIIGDFQN-NH2) is 170-fold higher in IC50: 160 nM for the first, 27000 nM for the second.

Going from `CC(C)C[C@H](NC(=O)[C@H](CC(C)C)NC(=O)[C@@H](N)CO)C(=O)N[C@@H](CO)C(=O)N[C@@H](CCCCN)C(=O)N[C@H](C(=O)N[C@@H](CO)C(=O)N[C@@H](CCC(N)=O)C(N)=O)C(C)C` [Example 7, H-SLLSKVSQ-NH2] (H-SLLSKVSQ-NH2) to `CC[C@H](C)[C@H](NC(=O)[C@H](CCCNC(=N)N)NC(=O)[C@H](CC(C)C)NC(=O)[C@H](CC(C)C)NC(=O)CNC(=O)[C@@H](NC(=O)[C@@H](N)Cc1c[nH]cn1)C(C)C)C(=O)N[C@@H](CCCCN)C(N)=O` [Example 69, H-HVGLLRIK-NH2] (H-HVGLLRIK-NH2), the IC50 falls from 430 nM to 37 nM (12-fold). The second is the more potent here.

First: CC[C@H](C)[C@H](NC(=O)[C@H](C)NC(=O)[C@@H](NC(=O)[C@H](CCC(=O)O)NC(=O)[C@H](CCC(=O)O)NC(=O)[C@@H]1CCCN1C(=O)[C@H](Cc1ccccc1)NC(=O)[C@@H](N)CC(=O)O)C(C)C)C(=O)N[C@H](C(=O)N[C@@H](CCC(=O)O)C(=O)N[C@@H](CCC(=O)O)C(=O)N[C@@H](CC(C)C)C(N)=O)C(C)C [Example 9, H-DFPEEVAIVEEL-NH2] (H-DFPEEVAIVEEL-NH2)
Second: CC[C@H](C)[C@H](NC(=O)[C@H](Cc1ccccc1)NC(=O)[C@H](C)NC(=O)[C@H](CCSC)NC(=O)[C@@H](NC(=O)[C@H](CCC(=O)O)NC(=O)[C@@H]1CCCN1C(=O)CNC(=O)[C@H](CCCCN)NC(=O)[C@@H](N)CCSC)C(C)C)C(=O)N[C@@H](CCC(=O)O)C(=O)N[C@@H](CCC(N)=O)C(N)=O [Example 40, H-MKGPEVMAFIEQ-NH2] (H-MKGPEVMAFIEQ-NH2)
The IC50 of the first is 1.7-fold higher: 220 nM for the first, 130 nM for the second.

Going from `CC[C@H](C)[C@H](NC(=O)[C@H](Cc1c[nH]cn1)NC(=O)[C@@H](N)CC(C)C)C(=O)N[C@@H](CO)C(=O)N[C@@H](Cc1c[nH]cn1)C(=O)N[C@@H](CC(=O)O)C(=O)N[C@@H](CCSC)C(=O)N[C@H](C(=O)NCC(=O)N1CCC[C@H]1C(=O)N[C@@H](CC(=O)O)C(N)=O)[C@@H](C)O` [Example 19, H-LHISHDMTGPD-NH2] (H-LHISHDMTGPD-NH2) to `CSCC[C@H](NC(=O)[C@H](CCCNC(=N)N)NC(=O)[C@@H](N)CCC(=O)O)C(=O)NCC(=O)N[C@@H](Cc1c[nH]cn1)C(=O)N[C@@H](Cc1c[nH]cn1)C(=O)N[C@@H](CC(=O)O)C(=O)N[C@@H](CC(=O)O)C(=O)N[C@@H](Cc1ccc(O)cc1)C(=O)N[C@@H](Cc1ccc(O)cc1)C(=O)N[C@@H](CO)C(=O)N[C@@H](CCCNC(=N)N)C(=O)N[C@@H](CC(C)C)C(=O)N[C@@H](CCCNC(=N)N)C(N)=O` [Example 44, H-ERMGHHDDYYSRLR-NH2] (H-ERMGHHDDYYSRLR-NH2), the IC50 falls from 700 nM to 100 nM (7-fold). The second is the more potent here.

`CSCC[C@H](N)C(=O)NCC(=O)N[C@@H](CCCCN)C(=O)N[C@@H](Cc1c[nH]c2ccccc12)C(=O)N[C@@H](Cc1c[nH]cn1)C(=O)N[C@H](C(=O)NCC(N)=O)C(C)C` [Example 67, H-MGKWHVG-NH2] (H-MGKWHVG-NH2) gave an IC50 of 160 nM.
